This assay concerns the target WIL-FL (Homo sapiens, UniProt P01721). Put plainly: Unlabeled LC Protease Sensitivity Assay (proteinase K). The following applies: small molecule 10 μM, WIL-FL 5 μM, proteinase K 50 nM, 2 hours at 37° C. Format: biochemical. In short, it runs like this: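 Compound at 10 μM (1% DMSO) is mixed with 5 μM WIL-FL and 50 nM proteinase K in PBS pH 7.4/0.02% Pluronic F-127, 37 °C, 2 h, then quenched with PMSF. Remaining protein measured by SEC-UPLC peak area at 280 nm and expressed as fold protection relative to vehicle and no-protease controls.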
As for `CCN(CC)c1ccc2c(C)c(CCN3C(=O)NC4(CCN(c5nccn6cnnc56)CC4)C3=O)c(=O)oc2c1` [Compound 217, 8-([1,2,4]triazolo[4,3-a]pyrazin-8-yl)-3-(2-(7-(diethylamino)-4-methyl-2-oxo-2H-chromen-3-yl)ethyl)-1,3,8-triazaspiro[4.5]decane-2,4-dione], the “Protection (fold protection of LC from protease)” value was “C (C ≥ 0.6)”.

`CCN(CC)c1ccc2c(C)c(CCNC(=O)NCc3ccc(=O)[nH]c3)c(=O)oc2c1` [Compound 286, 1-(2-(7-(diethylamino)-4-methyl-2-oxo-2H-chromen-3-yl)ethyl)-3-((6-oxo-1,6-dihydropyridin-3-yl)methyl)urea]: the “Protection (fold protection of LC from protease)” value is reported as “A (A < 0.3))”.

In the case of `CCCN(CC)c1ccc2c(C)cc(=O)oc2c1` [Compound 275, 7-(ethyl(propyl)amino)-4-methyl-2H-chromen-2-one], the “Protection (fold protection of LC from protease)” value is reported as “A (A < 0.3))”.

In the case of `Cc1cc(=O)oc2cc(OC(C)c3ccccn3)ccc12` (stereo not drawn) [Compound 174, 4-methyl-7-(1-(pyridin-2-yl)ethoxy)-2H-chromen-2-one], the “Protection (fold protection of LC from protease)” value was “A (A < 0.3))”.

For `CCN(CC)c1ccc2c(C)c(CC(=O)NCCCN(C)C)c(=O)oc2c1` [Compound 59, 2-(7-(diethylamino)-4-methyl-2-oxo-2H-chromen-3-yl)-N-(3-(dimethylamino)propyl)acetamide], the “Protection (fold protection of LC from protease)” value is on record as “A (A < 0.3))”.

Turning to `Cc1cc(=O)oc2cc(NC(C)c3ccccc3)ccc12` (stereo not drawn) [Compound 39, 4-methyl-7-((1-phenylethyl)amino)-2H-chromen-2-one], the “Protection (fold protection of LC from protease)” value is “A (A < 0.3))”.

For the compound `Cc1cc(=O)oc2cc(OC(C)c3c(F)cccc3F)ccc12` (stereo not drawn) [Compound 51, 7-(1-(2,6-difluorophenyl)ethoxy)-4-methyl-2H-chromen-2-one], the “Protection (fold protection of LC from protease)” value is recorded as “A (A < 0.3))”.

Turning to `C#CCN(C)c1ccc2c(C)cc(=O)oc2c1` [Compound 257, 4-methyl-7-(methyl(prop-2-yn-1-yl)amino)-2H-chromen-2-one], the “Protection (fold protection of LC from protease)” value was “A (A < 0.3))”.

For the compound `CCN(CC)c1ccc2c(C)c(CCNC(=O)NC)c(=O)oc2c1` [Compound 131, 1-(2-(7-(diethylamino)-4-methyl-2-oxo-2H-chromen-3-yl)ethyl)-3-methylurea], the “Protection (fold protection of LC from protease)” value is listed as “B (3 ≤ B < 0.6)”.

Regarding `CCN(CC)c1ccc2c(C(F)(F)F)cc(=O)oc2c1` [Compound 24], the “Protection (fold protection of LC from protease)” value was “A (A < 0.3))”.

Consider `CCN(CC)c1ccc2c(C)c(CCOC(=O)NCc3cnccn3)c(=O)oc2c1` [Compound 91, 2-(7-(diethylamino)-4-methyl-2-oxo-2H-chromen-3-yl)ethyl (pyrazin-2-ylmethyl)carbamate], for which the “Protection (fold protection of LC from protease)” value is on record as “B (3 ≤ B < 0.6)”.

Regarding `CCN(CC)c1ccc2c(C)c(CCN3C(=O)NC4(CCN(C(=O)c5ncccn5)C4)C3=O)c(=O)oc2c1` (stereo not drawn) [Compound 205, 3-(2-(7-(diethylamino)-4-methyl-2-oxo-2H-chromen-3-yl)ethyl)-7-(pyrimidine-2-carbonyl)-1,3,7-triazaspiro[4.4]nonane-2,4-dione], the “Protection (fold protection of LC from protease)” value is “B (3 ≤ B < 0.6)”.

On to `CCN(CC)c1ccc2c(C)c(CCOC(=O)NCc3cccc(CCC(=O)OC)c3)c(=O)oc2c1` [Compound 310, Methyl 3-(3-((((2-(7-(diethylamino)-4-methyl-2-oxo-2H-chromen-3-yl)ethoxy)carbonyl)amino)methyl)phenyl)propanoate], for which the “Protection (fold protection of LC from protease)” value is reported as “A (A < 0.3))”.

For `CCN(CC)c1ccc2c(C)c(CN3C(=O)CNC3=O)c(=O)oc2c1` [Compound 129, 3-((7-(diethylamino)-4-methyl-2-oxo-2H-chromen-3-yl)methyl)imidazolidine-2,4-dione], the “Protection (fold protection of LC from protease)” value is recorded as “B (3 ≤ B < 0.6)”.

On to `CCN(CC)c1ccc2c(C)c(CCOC(=O)NCc3cccc(-c4ccncc4)c3)c(=O)oc2c1` [Compound 162, 2-(7-(diethylamino)-4-methyl-2-oxo-2H-chromen-3-yl)ethyl (3-(pyridin-4-yl)benzyl)carbamate], for which the “Protection (fold protection of LC from protease)” value is listed as “C (C ≥ 0.6)”.

With `CCN(CC)c1ccc2c(C)c(CCN3C(=O)NC4(CCN(C(=O)c5cnccn5)CC4)C3=O)c(=O)oc2c1` [Compound 212, 3-(2-(7-(diethylamino)-4-methyl-2-oxo-2H-chromen-3-yl)ethyl)-8-(pyrazine-2-carbonyl)-1,3,8-triazaspiro[4.5]decane-2,4-dione], the “Protection (fold protection of LC from protease)” value is recorded as “B (3 ≤ B < 0.6)”.

As for `CCCN(CCC)c1ccc2c(C)cc(=O)oc2c1` [Compound 241, 7-(dipropylamino)-4-methyl-2H-chromen-2-one], the “Protection (fold protection of LC from protease)” value is given as “A (A < 0.3))”.

`CCN(CC)c1ccc2cc(C#N)c(=N)oc2c1` [Compound 26, 7-(diethylamino)-2-imino-2H-chromene-3-carbonitrile]: the “Protection (fold protection of LC from protease)” value is “A (A < 0.3))”.

For `CCN(CC)c1ccc2c(C)c(CCC(=O)NCCc3cccc(F)c3)c(=O)oc2c1` [Compound 72], the “Protection (fold protection of LC from protease)” value is listed as “A (A < 0.3))”.

For the compound `C=C(C)CN(C)c1ccc2c(C)cc(=O)oc2c1` [Compound 254, 4-methyl-7-(methyl(2-methylallyl)amino)-2H-chromen-2-one], the “Protection (fold protection of LC from protease)” value was “A (A < 0.3))”.

As to `CCN(CC)c1ccc2c(C)c(CC(=O)NCCCc3ccccc3)c(=O)oc2c1` [Compound 56, 2-(7-(diethylamino)-4-methyl-2-oxo-2H-chromen-3-yl)-N-(3-phenylpropyl)acetamide], the “Protection (fold protection of LC from protease)” value was “A (A < 0.3))”.

`Cc1cc(=O)oc2cc(NCc3ccccc3)ccc12` [Compound 28, 7-(benzylamino)-4-methyl-2H-chromen-2-one]: the “Protection (fold protection of LC from protease)” value is reported as “A (A < 0.3))”.

Take `Cc1cc(=O)oc2cc(C(=O)Nc3ccc4ncccc4c3)ccc12` [Compound 235, 4-methyl-2-oxo-N-(quinolin-6-yl)-2H-chromene-7-carboxamide]: the “Protection (fold protection of LC from protease)” value is “A (A < 0.3))”.

As to `CCN(CC)c1ccc2c(C)c(CCOC(=O)NCc3ccc(=O)[nH]c3)c(=O)oc2c1` [Compound 138, 2-(7-(diethylamino)-4-methyl-2-oxo-2H-chromen-3-yl)ethyl ((6-oxo-1,6-dihydropyridin-3-yl)methyl)carbamate], the “Protection (fold protection of LC from protease)” value is on record as “A (A < 0.3))”.

`CCN(CC)c1ccc2c(C)c(CCC(=O)NCCCN(C)C)c(=O)oc2c1` [Compound 68]: the “Protection (fold protection of LC from protease)” value is listed as “A (A < 0.3))”.

As to `CCN(CC)c1ccc2c(C)c(CCOC(=O)NCc3ncccn3)c(=O)oc2c1` [Compound 93, 2-(7-(diethylamino)-4-methyl-2-oxo-2H-chromen-3-yl)ethyl (pyrimidin-2-ylmethyl)carbamate], the “Protection (fold protection of LC from protease)” value was “B (3 ≤ B < 0.6)”.

As for `CCN(CC)c1ccc2c(C)c(CCOC(=O)N3CCN(S(=O)(=O)C4CC4)CC3)c(=O)oc2c1` [Compound 107, 2-(7-(diethylamino)-4-methyl-2-oxo-2H-chromen-3-yl)ethyl 4-(cyclopropylsulfonyl)piperazine-1-carboxylate], the “Protection (fold protection of LC from protease)” value is “A (A < 0.3))”.
